Experimental findings from paper PMC4242536, “Cell Surface Protein Disulfide Isomerase Regulates Natriuretic Peptide Generation of Cyclic Guanosine Monophosphate” (PLoS ONE, 2014) are described below.

In assay [1] the target is T1, PDI full-length protein (Homo sapiens, UniProt P07237).
T1 construct: PDI full-length protein (Sigma, St. Louis, MO) was immobilized onto a CM5 sensorchip; purchased Sigma (St. Louis, MO)
Kind of assay: Surface Plasmon Resonance binding to immobilized PDI (Biacore T200). To be noted: SPR, 25°C, pH 7.4. The procedure:
SPR measurements were performed at 25°C on a Biacore T200 biosensor (GE Healthcare). PDI full-length protein (Sigma, St. Louis, MO) was immobilized onto a CM5 sensorchip using an amine coupling immobilization kit (GE Healthcare) as instructed by the supplier. After the chip was washed with Biacore running buffer (150 mM NaCl, and 0.005% (w/v) Polysorbate 20, 10 mM HEPES, pH 7.4), peptides ANP, BNP or CNP were injected at 40 ul/min for 30 s and allowed to dissociate for 150 s. Residual bound peptide was desorbed with 350 mM NaCl. Binding kinetics were derived from sensorgrams using Bioevaluation software version 4.1.1 (GE Healthcare).
For orientation: SPR reads the build-up and loss of mass on a sensor chip optically.

The subject of assay [2] is GC-B. Nature of the assay: Western blot of GC-B expression in HMCs. The settings on record: HMCs with and without bacitracin. It counts as cell-based, human. The procedure: (§1) Human umbilical vein endothelial cells (HUVECs), human aortic smooth muscle cells (HASMCs), and pig kidney epithelial cells (LLC-PK1) were purchased from American Type Culture Collection (ATCC) (Manassas, VA). HUVECs were cultured in endothelial growth medium (EGM-2) with supplements (Lonza, Hopkinton, MA). HASMCs were cultured in smooth muscle cells growth medium (SmBM) with supplements (Lonza). Primary human glomerular mesangial cells (HMCs) (Cell Systems Inc., Kirkland, WA) were grown in mesangial growth media with supplements (Cell Systems Inc.). LLC-PK1 cells were grown in Dullbecco's Modification of Eagle's Medium (DMEM) containing 10% FBS. All cell cultures were grown at 37°C in humidified 5% CO2 air. Primary cells from passage 3 to 7 were used in this study. Conventional western blotting was used to identify PDI in cellular proteins and was described previously.
In general terms: A western blot detects proteins with antibodies after separation by electrophoresis.

Assay [3] has as its system human aortic smooth muscle cells (HASMCs). Kind of assay: Total cellular cGMP (BIOTRAK enzyme immunoassay) in HASMCs stimulated by natriuretic peptides. It counts as cell-based. To be noted: 30 minutes with NP, 0.5 mM IBMX, p ≤0.05 vs samples without bacitracin, 3 independent experiments in triplicate. The procedure:
(§2) Human umbilical vein endothelial cells (HUVECs), human aortic smooth muscle cells (HASMCs), and pig kidney epithelial cells (LLC-PK1) were purchased from American Type Culture Collection (ATCC) (Manassas, VA). HUVECs were cultured in endothelial growth medium (EGM-2) with supplements (Lonza, Hopkinton, MA). HASMCs were cultured in smooth muscle cells growth medium (SmBM) with supplements (Lonza). Primary human glomerular mesangial cells (HMCs) (Cell Systems Inc., Kirkland, WA) were grown in mesangial growth media with supplements (Cell Systems Inc.). LLC-PK1 cells were grown in Dullbecco's Modification of Eagle's Medium (DMEM) containing 10% FBS. All cell cultures were grown at 37°C in humidified 5% CO2 air. Primary cells from passage 3 to 7 were used in this study. Total cellular cGMP was measured using the BIOTRAK cGMP enzyme immunoassay system Kit (GE Healthcare) as previously described. Briefly, cells were plated in 96-well plates and incubated overnight to reach 80% confluence. The cells were stimulated with different concentrations of synthetic natriuretic peptides dissolved in basic culture medium containing 0.5 mM IBMX for 30 minutes, then lysed. All samples were completed in triplicate for each experiment. The amount of cGMP was calculated from a standard curve that was generated in parallel. […]

Assay [4] has as its system pig kidney epithelial cells (LLC-PK1). Kind of assay: Total cellular cGMP (BIOTRAK enzyme immunoassay) in LLC-PK1 cells stimulated by ANP. It is filed as cell-based. The procedure: as §1, with “study.” for “study. Conventional western blotting was used to identify PDI in cellular proteins and was described previously.”
(§3) Total cellular cGMP was measured using the BIOTRAK cGMP enzyme immunoassay system Kit (GE Healthcare) as previously described. Briefly, cells were plated in 96-well plates and incubated overnight to reach 80% confluence. The cells were stimulated with different concentrations of synthetic natriuretic peptides dissolved in basic culture medium containing 0.5 mM IBMX for 30 minutes, then lysed. All samples were completed in triplicate for each experiment. The amount of cGMP was calculated from a standard curve that was generated in parallel. […]

Assay [5] relates to human umbilical vein endothelial cells (HUVECs). Kind of assay: Total cellular cGMP (BIOTRAK enzyme immunoassay) in HUVECs stimulated by natriuretic peptides. It counts as cell-based. The settings on record: 30 minutes with NP, 0.5 mM IBMX, p ≤0.05 vs samples without bacitracin, 3 independent experiments in triplicate. The method, then: as §2
Assay [6] relates to HMCs, HASMCs, and HUVECs. Nature of the assay: Total cellular cGMP in HMCs, HASMCs and HUVECs (summary over cells). It is filed as cell-based, human. The procedure:
as §2

In assay [7] the test system is PDI. Kind of assay: Diphtheria toxin sensitivity assay (cell survival) in HMCs. To be noted: DT 30 minutes then 72 hours, p<0.05, 3 independent experiments. It is filed as cell-based, human.
In assay [8] the test system is human mesangial cells (HMCs). Kind of assay: Total cellular cGMP (BIOTRAK enzyme immunoassay) in HMCs stimulated by natriuretic peptides. It counts as cell-based. The method, then: as §1, with “study.” for “study. Conventional western blotting was used to identify PDI in cellular proteins and was described previously.”
as §3

T1 sequence (P07237 18-508, species assumed): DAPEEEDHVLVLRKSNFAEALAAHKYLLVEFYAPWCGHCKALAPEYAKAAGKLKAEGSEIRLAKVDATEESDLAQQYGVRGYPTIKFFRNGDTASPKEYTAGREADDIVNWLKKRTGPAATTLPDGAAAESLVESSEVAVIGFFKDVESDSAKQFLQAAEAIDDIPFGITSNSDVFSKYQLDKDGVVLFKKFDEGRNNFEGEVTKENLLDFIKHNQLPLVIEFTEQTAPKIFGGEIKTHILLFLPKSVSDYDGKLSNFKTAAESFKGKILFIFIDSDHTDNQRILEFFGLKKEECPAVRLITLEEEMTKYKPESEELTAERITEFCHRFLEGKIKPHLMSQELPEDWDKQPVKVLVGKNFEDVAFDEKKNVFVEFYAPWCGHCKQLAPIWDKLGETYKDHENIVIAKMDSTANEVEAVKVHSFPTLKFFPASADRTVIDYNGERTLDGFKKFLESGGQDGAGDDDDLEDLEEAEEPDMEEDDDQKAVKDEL

Turning to `CC[C@H](C)[C@@H]1NC(=O)[C@H](CCCNC(=N)N)NC(=O)[C@H](CC(=O)O)NC(=O)[C@H](CCSC)NC(=O)[C@H](CCCCN)NC(=O)[C@H](CCCNC(=N)N)NC(=O)CNC(=O)[C@H](Cc2ccccc2)NC(=O)[C@@H](NC(=O)CNC(=O)[C@H](CO)NC(=O)CNC(=O)[C@H](CCC(N)=O)NC(=O)[C@@H](NC(=O)[C@H](CCSC)NC(=O)[C@H](CCCCN)NC(=O)[C@@H]2CCCN2C(=O)[C@@H](N)CO)C(C)C)CSSC[C@@H](C(=O)N[C@@H](CCCCN)C(=O)N[C@H](C(=O)N[C@@H](CC(C)C)C(=O)N[C@@H](CCCNC(=N)N)C(=O)N[C@@H](CCCNC(=N)N)C(=O)N[C@@H](Cc2c[nH]cn2)C(=O)O)C(C)C)NC(=O)CNC(=O)[C@H](CC(C)C)NC(=O)CNC(=O)[C@H](CO)NC(=O)[C@H](CO)NC(=O)[C@H](CO)NC(=O)[C@H](CO)NC1=O` [BNP, B-type natriuretic peptide], the “binding to immobilized PDI (in words)” value in assay [1] (0–1600 nM ANP and BNP, 200 nM comparison of NPs) was “highest binding affinity with PDI and displayed dose-dependent increases in binding”.
Regarding bacitracin, the “effect on GC-B expression” value in assay [2] is “no difference in GC-B expression”. Moreover, the “attenuation of ANP, BNP, and CNP-mediated increases in cGMP” value in assay [3] is “significantly attenuated”; in assay [5], “significantly attenuated”; in assay [8] (HMCs, 30 minutes with NP, 0.5 mM IBMX, p ≤0.05 vs samples without bacitracin, 3 independent experiments in triplicate), “significantly attenuated”. In addition, the “inhibition of ANP-mediated increases in cGMP” value in assay [4] (LLC-PK1 cells (no detectable PDI), p>0.05) is listed as “did not inhibit”. Besides, the “dose dependence of the inhibitory effect on NP-mediated cGMP” value in assay [6] (data not shown, HMCs, HASMCs and HUVECs) was “dose dependent”. For the same molecule, in assay [6] (in words), the “effect on NP cGMP generation compared to RL90 or siRNA knockdown” value is “greater effect”. The “cell survival on diphtheria toxin (inhibition of PDI-dependent DT toxicity)” value in assay [7] is listed as “inhibited PDI function”; in assay [7] (listed as Bacitracin), “increased cell survival significantly”. Moreover, the “inhibitory effect on cGMP levels in the presence of protease inhibitors” value in assay [8] (HMCs stimulated by ANP and CNP, with or without protease inhibitor cocktail, 3 independent experiments) is given as “did not lose its inhibitory effects on cGMP levels”.
For C-type natriuretic peptide [CNP], the “affinity for PDI (in words)” value in assay [1] (compared with ANP and BNP, Fig. 5D) was “much lower affinity”.
For the molecule protein disulfide isomerase [PDI], in assay [4] (LLC-PK1 cells, purified PDI added, compared with cells without PDI, second of two values (condition not given, Fig. 3C)), the “increase of ANP stimulated cGMP production” value came out at 39%.
